Source: ChEMBL document CHEMBL1146663, “Anti-inflammatory flavonoids and pterocarpanoid from Crotalaria pallida and C. assamica” (Bioorg Med Chem Lett, 2004)
pIC50: −log10 of the molar value.

Tests used:
Mus musculus [1] = species: Mus musculus; test: Inhibitory effect of compound on the accumulation of NO2 in the culture media of RAW 264.7 cells in response to LPS; format: functional, cell-based
Mus musculus [2] = species: Mus musculus; test: Inhibitory effect of compound on the accumulation of NO2 in the culture media of N9 cells in response to LPS/IFN-gamma; format: functional, cell-based
Rattus norvegicus [3] = species: Rattus norvegicus; test: Inhibitory effect of compound on superoxide anion generation in rat neutrophils stimulated with fMLP/CB; format: functional
Rattus norvegicus [4] = species: Rattus norvegicus; test: Inhibitory effect of compound on superoxide anion generation in rat neutrophils stimulated with PMA; format: functional
Mus musculus [5] = species: Mus musculus; test: Inhibitory effect of compound on the accumulation of NO2 in the culture media of RAW 264.7 cells in response to LPS; potent effect; format: functional
Mus musculus [6] = species: Mus musculus; test: Inhibitory effect of compound on the accumulation of NO2 in the culture media of N9 cells in response to LPS/IFN-gamma; potent effect; format: functional

| Structure (SMILES) | pIC50 (Mus musculus [1]) | pIC50 (Mus musculus [2]) | pIC50 (Rattus norvegicus [3]) | pIC50 (Rattus norvegicus [4]) | IC50 (Mus musculus [5]) | IC50 (Mus musculus [6]) |
| --- | --- | --- | --- | --- | --- | --- |
| CC(=N)NCc1cccc(CN)c1 [1400W] | 5.21 | 5.66 |  |  |  |  |
| O=c1c(O)c(-c2ccc(O)cc2)oc2cc(OC3O[C@H](CO)[C@@H](O)[C@H](O)[C@H]3O)cc(O)c12 (stereo partly specified) | < 4.52 | < 4.52 | < 4.52 | < 4.52 |  |  |
| O=c1cc(-c2ccc(O)cc2)oc2cc(O)ccc12 | < 4.52 | < 4.52 | < 4.52 | < 4.52 |  |  |
| CC(=O)c1cc2c3c(ccc2o1)[C@@H]1COc2cc(O)ccc2[C@@H]1O3 [CROTAFURAN B] |  |  |  |  | potent effect | potent effect |
| C[C@](O)(CO)c1cc2c3c(ccc2o1)[C@@H]1COc2cc(O)ccc2[C@@H]1O3 | < 4.52 | 4.86 | < 4.52 | < 4.52 |  |  |
| C=C(C)c1cc2c3c(ccc2o1)[C@@H]1COc2cc(O)ccc2[C@@H]1O3 [CROTAFURAN A] |  |  |  |  | potent effect | potent effect |
| CN1CCN(CCCN2c3ccccc3Sc3ccc(C(F)(F)F)cc32)CC1 [TRIFLUOPERAZINE] |  |  | 5.18 | 5.57 |  |  |

Continued, values first:

| pIC50 (Mus musculus [1]) | pIC50 (Mus musculus [2]) | pIC50 (Rattus norvegicus [3]) | pIC50 (Rattus norvegicus [4]) | IC50 (Mus musculus [5]) | IC50 (Mus musculus [6]) | Structure (SMILES) |
| --- | --- | --- | --- | --- | --- | --- |
| < 4.52 | < 4.52 | < 4.52 | < 4.52 |  |  | O=c1c(-c2ccc(O)cc2O)coc2cc(O)cc(O)c12 |
| < 4.52 | < 4.52 | < 4.52 | < 4.52 |  |  | COc1cc(O)ccc1-c1coc2cc(O)cc(O)c2c1=O [THERALIN] |
| < 4.52 | < 4.52 | 4.60 | < 4.52 |  |  | O=c1c(-c2ccc(O)cc2O)coc2cc(O)ccc12 |
| 4.97 | < 4.52 | 5.47 | < 4.52 |  |  | O=c1cc(-c2ccc(O)cc2)oc2cc(O)cc(O)c12 [APIGENIN] |
